Assay results: PMC7932521, “2-aminobenzimidazoles for leishmaniasis: From initial hit discovery to in vivo profiling” (PLoS Neglected Tropical Diseases, 2021)
Where two headings read alike, the source gives them in different places.

Key:
[1] = tested on: Leishmania infantum MHOM/MA(BE)/67/ITMAP263 amastigotes; assay: L. infantum intracellular amastigote assay in PMM; format: cell-based; details: for IC50: Leishmania infantum, read-out: L. infantum IC50; for SI: selectivity index (CC50 / IC50): CC50 / L. infantum IC50; for potency compared to initial hit 1: L. infantum IC50
Protocol: (§1) Leishmania infantum MHOM/MA(BE)/67/ITMAP263 amastigotes were collected from the spleen of infected donor Golden hamsters. Primary peritoneal mouse macrophages (PMM) were used as host cells for in vitro assays. PMM were collected from Swiss mice after 2 days of peritoneal stimulation with a 2% suspension of potato starch and maintained in RPMI-1640 medium supplemented with 200 mM L-glutamine, antibiotics and 5% FCS at 37°C and 5% CO2. Promastigotes of L. infantum chagasi (luciferase) (MHOM/BR/2005/NLC) obtained as described in Reimão et al.,[27] were grown in M199 medium supplemented with 10% FCS, 0.25% hemin, 32 μg/ml hygromycin and 2% sterile human urine at 25°C and 5% CO2.
(§2) Stock solutions of the compounds at 20 mM were prepared in 100% DMSO. Next, the compounds were serially pre-diluted in DMSO followed by a further dilution in demineralized water to assure a final in-test DMSO concentration below 1%. The compounds were tested at 4-fold dilutions starting at 64 μM.
For the antileishmania in vitro assays, 3×10^4 PMM/well were seeded in 96-well plates. After 24h, 5×10^5 amastigotes/well were added and incubated for 2h at 37°C. Next, the compounds in 4-fold serial dilutions were added and the plates were further incubated for 5 days (37°C, 5% CO2). Parasite burdens were assessed using an inverted microscope after Giemsa staining. The results were expressed as percent reduction in parasite burdens compared to negative control wells (100% growth) and IC50 values were determined. Values represent the geometric mean of at least two independent experiments. Miltefosine was used as the positive control in all plates.

[2] = Parallel artificial membrane permeability assay (PAMPA); format: in vitro ADME
Protocol: To determine the passive permeability of the compounds, a 96-well plate containing membranes pre-coated with lipids (Corning Gentest # 353015) was used. The solutions of the compounds were prepared by diluting the stock solutions (10mM) in phosphate buffered saline (PBS) pH 6.5 at a final concentration of 10μM. The solutions diluted in PBS pH 6.5 were then added to the donor portion of the plate (300 μl/well), while PBS pH 7.4 (200 μl/well) was added to the acceptor portion. The two portions of the plate were then coupled, and the system was incubated for 5 h at 37°C. At the end of the incubation, samples were collected from the donor and acceptor plates, and then added to plates containing quench solution (10% water and 90% methanol: acetonitrile (50:50) + 50 nM tolbutamide). The final concentrations of compounds in the donor, acceptor, and initial solution (T0) wells were analyzed using LC-MS/MS. The results were used to calculate an effective permeability (Pe) value. The PAMPA assay was performed in triplicate (n = 3).

[3] = tested on: PMM (Primary Mouse Macrophages); assay: Cytotoxicity on primary peritoneal mouse macrophages; format: cell-based; details: Mus musculus, Macrophage, read-out: PMM IC50
Protocol: as §1, §2

[4] = Mouse liver microsomal stability; format: in vitro ADME; details: for microsomal CLint at 0.5 μM: CD1, mouse, liver microsomes, pH 7.4, S1 Data, read-out: MLM CLint
Protocol: The metabolic stability of the compounds was evaluated in human (pool of 200 donors, XenoTech) and mouse liver microsomes (CD1 mouse, GIBCO). Test compounds were prepared at a concentration of 0.5 μM and incubated with 0.25 mg/mL liver microsomes at pH 7.4 and 37°C. The reaction was started by addition of NADPH at […]. Samples were taken at 0, 5, 10, 15, 20 and 30 minutes. The reaction was stopped by the addition of acetonitrile:methanol (1:1) containing an internal standard (tolbutamide at 50 nM). Compounds were quantified by liquid chromatography triple quadrupole mass spectrometry (LC-MS/MS). Peak area ratios (analyte/internal standard) were converted to % remaining using the area ratio at time 0 as 100%. Half-life (t1/2 = ln(2)/k) in minutes and intrinsic clearance (Clint = k x 1000/(0.25)) in μL/min/mg were calculated using a non-linear regression from % remaining versus incubation time. From this plot, the slope (k) was determined. The analysis conditions were: analytical column (Gemini C18, […], Phenomenex), electrospray ionization source (ESI) in positive and negative mode, mobile phase A (water + 0.1% formic acid) and B (acetonitrile + 0.1% formic acid), flow rate of 0.7 mL/min.

[5] = Experimental distribution coefficient (eLogD); format: physicochemical; details: pH 7.4
Protocol: To determine the lipophilicity of the compounds, a methodology based on the retention time of molecules in reverse stationary phase (Ascentis RP-Amide HPLC column) was used. The chromatogram was obtained using LC-MS/MS. Test compounds were prepared at 1.0 μg/mL by adding the stock solution at (1:1) mobile phases A:B + internal standard at 200nM (A: 5% methanol in 10mM ammonium acetate pH 7.4, B: 100% methanol), DMSO concentration must be lower than 2%. […] The retention time (in minutes) of each of the eight standards was plotted against their LogD values. The resulting equation for the calibration curve (y = mx + b) was used to calculate the LogD values for the test compounds.

MRC-5 cytotoxicity = format: cell-based; details: human, MRC-5 cells; S1 Data
[6] = 120 h, intracellular amastigotes in PMM, 5 days
[7] = reverse-phase HPLC retention (Ascentis RP-Amide column), experimental
[8] = reverse stationary phase HPLC column (Ascentis RP-Amide), S1 Data
[9] = PAMPA, S1 Data, read-out: PAMPA Pe

Row | Structure (SMILES) | IC50 [1, 6] [µM] | Papp at 5 h, 10 μM ([2]; passive permeability, read-out: PAMPA) [×10⁻⁶ cm/s] | IC50 [3] [µM] | MLM CLint ([4]; mouse liver microsome intrinsic clearance) [µL/min/mg] | chromatographic logD [5, 7] | SI: selectivity index (CC50 / IC50) [1] | IC50 ([1]; S1 Data) [µM] | MLM CLint ([4]; S1 Data) [µL/min/mg] | CC50 (MRC-5 cytotoxicity) [µM] | chromatographic logD [5, 8] | potency compared to initial hit 1 [1] [fold] | eLogD ([5]; experimental) | Papp at 5 h, 10 μM [2, 9] [×10⁻⁶ cm/s] | microsomal CLint at 0.5 μM [4] [µL/min/mg]
1 | CCCn1c(NC(=O)Cc2ccc(Cl)cc2)nc2ccccc21 [Compound 1] | 12 | 6.7 | > 64 | 3094 | 4.6 |  |  |  |  |  |  |  |  | 
2 | CCCn1c(NC(=O)Cc2ccc(Cl)cc2)nc2ccc(F)cc21 [Compound 3, CCCn1c(cc(F)cc2)c2nc1NC(=O)Cc3ccc(Cl)cc3] | 2.9 |  | 12.7 |  |  | 4 | 2.94 | 1590 | 56.7 | 4.31 |  |  |  | 
3 | CCCn1c(NC(=O)Cc2ccc(Cl)cc2)nc2cc(F)ccc21 [Compound 4, CCCn1c(ccc(F)c2)c2nc1NC(=O)Cc3ccc(Cl)cc3] | 4.3 |  | 20.2 |  |  | 5 | 4.35 | 1510 | > 64 | 4.26 |  |  |  | 
4 | CCCn1c(NC(=O)Cc2ccc(Cl)cc2)nc2cc(C(F)(F)F)ccc21 [Compound 7, CCCn1c(ccc(C(F)(F)F)c2)c2nc1NC(Cc3ccc(Cl)cc3)=O] | 2 |  | 16 |  |  | 8 | 2.01 | 283 | 11.2 | 4.69 | 6 | 4.7 |  | 
5 | Cn1c(NC(=O)Cc2ccc(Cl)cc2)nc2ccccc21 [Compound 17, O=C(Nc1n(C)c(cccc2)c2n1)Cc3ccc(Cl)cc3] | 33 |  | 32 |  |  |  | 32.5 |  | > 64 |  |  |  |  | 
6 | CC(C)(C)Cn1c(NC(=O)Cc2ccc(C(F)(F)F)cc2)nc2ccccc21 [Compound 20, CC(Cn1c(cccc2)c2nc1NC(Cc3ccc(C(F)(F)F)cc3)=O)(C)C] | 8.2 |  | 22.6 |  | 4.9 |  | 8.18 |  | > 32 |  |  |  |  | 
7 | O=C(Cc1ccc(Cl)cc1)Nc1nc2ccc(F)cc2n1CC(F)(F)F [Compound 23, Fc1cc2c(nc(NC(=O)Cc3ccc(Cl)cc3)n2CC(F)(F)F)cc1] | 4.8 |  | 45.2 |  |  |  | 4.82 |  | > 64 | 4.46 |  |  | 7.07 | 
8 | O=C(Cc1ccc(F)cc1)Nc1nc2cc(F)ccc2n1C1CCNCC1 [Compound 25, O=C(Nc1n(C2CCNCC2)c(c3n1)ccc(F)c3)Cc4ccc(F)cc4] | 34 |  | > 64 |  |  |  | 34.4 |  | > 64 | 3.08 |  |  | 0.19 | 
9 | CCN(CC)CCCn1c(NC(=O)Cc2ccc(F)cc2)nc2ccc(C#N)cc21 [Compound 26, CCN(CC)CCCn1c(cc(C#N)cc2)c2nc1NC(Cc3ccc(F)cc3)=O] |  |  | > 64 |  |  |  | > 64 |  | > 64 |  |  |  |  | 154
10 | Cn1nccc1C(=O)Nc1nc2ccc(C#N)cc2n1C1CC1 [Compound 31, O=C(c1ccnn1C)Nc2nc(ccc(C#N)c3)c3n2C4CC4] | 30 |  | > 64 |  |  | 2 | 30 |  | > 64 |  |  |  | 14.4 | 162
11 | Cn1nncc1C(=O)Nc1nc2ccc(C#N)cc2n1CC(F)(F)F [Compound 33, O=C(c1cnnn1C)Nc2nc(ccc(C#N)c3)c3n2CC(F)(F)F] | 15 |  | 32 |  |  | 2 | 14.8 |  | > 64 | 4 |  | 4.0 |  | 
12 | Cn1cc(C(=O)Nc2nc3ccc(C#N)cc3n2CC(F)(F)F)cn1 [Compound 36, O=C(c1cn(C)nc1)Nc2nc(ccc(C#N)c3)c3n2CC(F)(F)F] | 8.7 |  | 16 |  |  | 2 | 8.74 |  | 56.1 |  |  |  |  | 
13 | N#Cc1ccc2nc(NC(=O)c3ccnn3C3CC3)n(CC(F)(F)F)c2c1 [Compound 37, O=C(c1ccnn1C2CC2)Nc3nc(ccc(C#N)c4)c4n3CC(F)(F)F] | 10 |  | 45.2 |  |  | 5 | 10.1 |  | 3 |  |  |  |  | 
14 | Cc1ccc(C(=O)Nc2nc3ccc(C#N)cc3n2CC(F)(F)F)cn1 [Compound 42, O=C(c1ccc(C)nc1)Nc2nc(ccc(C#N)c3)c3n2CC(F)(F)F] | 4.7 |  | 8 |  |  | 2 | 4.65 |  | > 64 |  |  |  | 13.2 | 
15 | N#Cc1ccc2nc(NC(=O)c3cnc(C(F)(F)F)nc3)n(CC(F)(F)F)c2c1 [Compound 46, O=C(c1cnc(C(F)(F)F)nc1)Nc2nc(ccc(C#N)c3)c3n2CC(F)(F)F] | 1 |  | 4 |  |  | 4 |  |  | 1.78 |  | 10 to 20 |  | 1.46 | 
16 | Cn1nccc1C(=O)Nc1nc2ccc(C#N)cc2n1CC(F)F [Compound 47, FC(F)Cn1c(cc(C#N)cc2)c2nc1NC(c3ccnn3C)=O] | 8.8 |  | 22.6 |  |  | 3 | 8.78 | 383 | 12.3 |  |  |  | 10.6 | 
17 | Cn1nccc1C(=O)Nc1nc2ccc(C#N)cc2n1CCF [Compound 48, FCCn1c(cc(C#N)cc2)c2nc1NC(c3ccnn3C)=O] | 28 |  | 32 |  |  | 1 | 27.9 | 154 | 13.7 |  |  |  | 63.7 | 
18 | Cn1nccc1C(=O)Nc1nc2ccc(C#N)cc2n1CC(C)(C)O [Compound 49, O=C(c1ccnn1C)Nc2nc(ccc(C#N)c3)c3n2CC(O)(C)C] | 36 |  | > 64 |  |  | 2 | 36 |  | > 64 |  |  |  | 9.39 | < 23
19 | CCN(CC)CCCn1c(NC(=O)c2ccnn2C)nc2ccc(C#N)cc21 [Compound 52, CCN(CC)CCCn1c(cc(C#N)cc2)c2nc1NC(c3ccnn3C)=O] | 57 |  | > 64 |  |  | 1 | 57 |  | > 64 |  |  |  |  | 59
